Experimental data as given in ChEMBL document CHEMBL4828736, “Discovery of ASTX029, A Clinical Candidate Which Modulates the Phosphorylation and Catalytic Activity of ERK1/2” (J Med Chem, 2021).

Assays:
in vitro [1] = conditions: CD1, mouse, microsomes
in vivo [2] = conditions: BALB/c, mouse, po, 5 mg/kg
in vivo [3] = conditions: BALB/c, mouse, po, 5 mg/kg; remark: listed apart in the source
CYP3A4 = CYP3A4 (Homo sapiens, UniProt P08684); experiment: in vitro; conditions: recombinant enzyme
in vitro [4] = conditions: human, microsomes
physchem = conditions: buffer, pH 7.4
in vivo [5] = conditions: BALB/c, mouse, iv, 0.5 mg/kg
in vivo [6] = conditions: BALB/c, mouse, po, 5 mg/kg; remark: listed apart in the source
in vivo [7] = conditions: BALB/c, mouse, iv, 0.5 mg/kg; remark: listed apart in the source
COLO 205 = experiment: cells; type: functional, cell-based; conditions: Homo sapiens, COLO 205, 96 h
[8] = biological target: Mitogen-activated protein kinase 1 (Homo sapiens) (UniProt P28482); conditions: dose 1.0 nM, time 30.0 min
Sequence of Mitogen-activated protein kinase 1 (Homo sapiens) (P28482 whole entry): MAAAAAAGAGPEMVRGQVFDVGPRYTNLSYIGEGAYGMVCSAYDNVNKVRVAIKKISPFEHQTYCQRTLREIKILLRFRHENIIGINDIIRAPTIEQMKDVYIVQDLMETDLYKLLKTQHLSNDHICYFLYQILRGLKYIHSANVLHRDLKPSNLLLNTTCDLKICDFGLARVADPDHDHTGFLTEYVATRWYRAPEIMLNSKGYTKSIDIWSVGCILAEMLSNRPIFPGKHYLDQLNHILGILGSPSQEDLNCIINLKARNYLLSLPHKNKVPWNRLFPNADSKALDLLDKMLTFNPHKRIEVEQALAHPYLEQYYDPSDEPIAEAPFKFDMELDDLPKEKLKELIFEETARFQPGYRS

Sequence of CYP3A4 (P08684 whole entry): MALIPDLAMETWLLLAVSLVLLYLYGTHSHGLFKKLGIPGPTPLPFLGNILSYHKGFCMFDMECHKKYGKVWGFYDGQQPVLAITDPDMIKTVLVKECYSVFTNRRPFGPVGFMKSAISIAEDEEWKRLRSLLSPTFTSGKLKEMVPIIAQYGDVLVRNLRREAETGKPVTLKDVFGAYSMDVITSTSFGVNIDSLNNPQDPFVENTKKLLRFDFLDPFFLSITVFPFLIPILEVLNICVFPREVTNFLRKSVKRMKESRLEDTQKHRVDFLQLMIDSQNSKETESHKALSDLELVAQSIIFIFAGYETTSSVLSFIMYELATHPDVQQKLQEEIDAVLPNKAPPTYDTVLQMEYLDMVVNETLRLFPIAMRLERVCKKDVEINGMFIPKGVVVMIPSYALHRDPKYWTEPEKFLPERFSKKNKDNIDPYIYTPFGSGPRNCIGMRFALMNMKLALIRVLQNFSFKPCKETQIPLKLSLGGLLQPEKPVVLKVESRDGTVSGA

| SMILES | half-life at 40 min, 1 µM (in vitro [1]) | half-life at 24 h (in vivo [2]) | AUC at 24 h (in vivo [3]) | half-life at 40 min, 1 µM (CYP3A4) | half-life at 40 min, 1 µM (in vitro [4]) | chromatographic logD (physchem) | clearance at 24 h (in vivo [5]) | bioavailability at 24 h (in vivo [6]) | Vd at 24 h (in vivo [7]) | IC50 (COLO 205) | inhibition [8] |
| --- | --- | --- | --- | --- | --- | --- | --- | --- | --- | --- | --- |
| C[C@H](C(=O)N[C@H](CO)c1cccc(N2CCN(C)CC2)n1)N1Cc2ccc(-c3nc(NC4CCOCC4)ncc3Cl)cc2C1=O | 120 min | 60 min | 1300 ng·h/mL | 17 min | 36 min | 3.3 | 8.7 mL/min/kg | 15% | 0.76 L/kg |  |  |
| O=C(CN1Cc2ccc(-c3nc(NC4CCOCC4)ncc3Cl)cc2C1=O)N[C@@]1(CO)CCc2ccccc21 | 20 min | 53.4 min | 960 ng·h/mL |  | 10 min | 3.6 | 35 mL/min/kg | 40% | 0.91 L/kg |  |  |
| COc1cc(F)cc([C@@H](CO)NC(=O)[C@@H](C)N2Cc3ccc(-c4nc(Nc5ccnc(OC)c5)ncc4Cl)cc3C2=O)c1 | 31 min | 60 min | 4100 ng·h/mL | 27 min | 25 min | 4.2 | 4.6 mL/min/kg | 23% | 0.56 L/kg |  |  |
| COc1cc(F)cc([C@@H](CO)NC(=O)[C@@H](C)N2Cc3ccc(-c4nc(NC5COC5)ncc4Cl)cc3C2=O)c1 |  | 102 min | 2650 ng·h/mL | 50 min | 29 min | 3.3 | 9.4 mL/min/kg | 30% | 0.71 L/kg | 12 nM | 49% |
| COc1cc(F)cc([C@@H](CO)NC(=O)[C@@H](C)N2Cc3ccc(-c4nc(Nc5ccnn5C)ncc4Cl)cc3C2=O)c1 | 35 min | 66 min | 824 ng·h/mL | 13 min | 23 min | 3.3 | 13 mL/min/kg | 13% | 0.52 L/kg | 10 nM |  |

Second part, the compound after the results:

| half-life at 40 min, 1 µM (in vitro [1]) | half-life at 24 h (in vivo [2]) | AUC at 24 h (in vivo [3]) | half-life at 40 min, 1 µM (CYP3A4) | half-life at 40 min, 1 µM (in vitro [4]) | chromatographic logD (physchem) | clearance at 24 h (in vivo [5]) | bioavailability at 24 h (in vivo [6]) | Vd at 24 h (in vivo [7]) | IC50 (COLO 205) | inhibition [8] | SMILES |
| --- | --- | --- | --- | --- | --- | --- | --- | --- | --- | --- | --- |
| 65 min |  |  |  | 32 min |  |  |  |  |  |  | O=C(CN1Cc2ccc(-c3nc(NC4CCOCC4)ncc3Cl)cc2C1=O)NCc1ccccc1 |
| 65 min | 150 min | 3000 ng·h/mL |  | 40 min | 3 | 11 mL/min/kg | 41% | 0.55 L/kg |  |  | Cc1cccc([C@@H](CO)NC(=O)CN2Cc3ccc(-c4nc(NC5CCOCC5)ncc4Cl)cc3C2=O)c1 |
| 100 min |  |  |  | 27 min |  |  |  |  |  |  | COc1cccc([C@@H](CO)NC(=O)[C@@H](C)N2Cc3ccc(-c4nc(NC5CCOCC5)ncc4Cl)cc3C2=O)c1 |
| 28 min | 84 min | 440 ng·h/mL | 28 min | 17 min | 4.7 | 19 mL/min/kg | 10% | 0.45 L/kg |  |  | O=C(CN1Cc2ccc(-c3nc(NC4CCOCC4)ncc3Cl)cc2C1=O)N1CCc2ccccc2CC1 |
| < 5 min |  |  |  | < 5 min |  |  |  |  |  |  | O=C(CN1Cc2ccc(-c3nc(NC4CCOCC4)ncc3Cl)cc2C1=O)N1CCCc2ccccc2C1 |
| 120 min | 90 min | 2400 ng·h/mL |  | 33 min | 3 | 6.8 mL/min/kg | 20% | 0.26 L/kg |  |  | COc1cc([C@@H](CO)NC(=O)[C@@H](C)N2Cc3ccc(-c4nc(NC5CCOCC5)ncc4Cl)cc3C2=O)ccn1 |
